Results reported in patent publication US20250143306A1, “COMBINATION FOR IMPROVING PLANT GROWTH AND/OR YIELD, FORMULATION AND METHOD FOR INCREASING PLANT GROWTH, STRESS RESISTANCE, AND YIELDS, AND USE THEREOF” (INSTITUTE OF EXPERIMENTAL BOTANY CAS CR, V.V.I., priority 2022, published 2025).

Assays:
[1] = system: wheat (Triticum aestivum) cv. Balitus; test: Root and shoot dry weight and total chlorophyll content of wheat under drought stress conditions (Example 2); assay type: in vivo
Protocol: To investigate the effect of the combinations on the weight parameters, and the total content of chlorophyll, seeds of wheat (Triticum aestivum) cv. Balitus were sown in a hydroponic growing system (Araponics, Liege, Belgium) using Hoagland's solution (control). Twenty days after sowing plants (except for control plants) were sprayed by either MTU (10 μM) or by nitrogen utilization enhancers alone or with a combination of MTU (10 μM) and nitrogen utilization enhancers. The plants were grown in a glasshouse at 20-28° C. under a combination of natural and artificial light. Since the treatment (20 days after sowing), the plants received low water doses. […] The root dry weight (RDW), shoot dry weight (SDW), and total chlorophyll content (TCC) of at least 25 plants were measured at the end of the experiment—45 days after the plants had been sown. RDW and SDW were recorded after drying the plants at 70° C. for 2 days. The chlorophyll content of each plant was measured by SPAD meter reading at the end of the experiment and TCC was calculated as SPAD value per SDW.

[2] = system: wheat (Triticum aestivum) cv. Balitus; test: Root and shoot dry weight and leaf nitrogen content of hydroponically grown wheat under optimal conditions (Example 1); assay type: in vivo
Protocol: To investigate the effect of the combinations on the weight parameters, the seeds of wheat (Triticum aestivum) cv. Balitus were sown in a hydroponic growing system (Araponics, Liege, Belgium) using Hoagland's solution (control). Twenty days after sowing, plants (except for control plants) were sprayed by aqueous solution of either MTU (10 μM) or by a nitrogen utilization enhancer alone or by a combination of MTU (10 μM) with the nitrogen utilization enhancer. The plants were grown in the Czech Republic in a glasshouse at 16-25° C. under natural and artificial light during the winter period. The root dry weight (RDW), shoot dry weight (SDW) and the nitrogen content in the leaves of at least 30 plants were measured 45 days after the plants had been sown. RDW and SDW were recorded after drying the plants at 70° C. for 2 days.

Compound | RDW % of control ([1]; concentration 100 mg/L) | RDW (root dry weight) ([1]; concentration 100 mg/L) [g] | SDW % of control ([1]; concentration 100 mg/L) | SDW (shoot dry weight) ([1]; concentration 100 mg/L) [g] | RDW % of control ([2]; concentration 100 mg/L) | RDW (root dry weight) ([2]; concentration 100 mg/L) [g] | SDW % of control ([2]; concentration 100 mg/L) | SDW (shoot dry weight) ([2]; concentration 100 mg/L) [g] | RDW % of control ([1]; concentration 250 mg/L) | RDW (root dry weight) ([1]; concentration 250 mg/L) [g] | SDW % of control ([1]; concentration 250 mg/L) | SDW (shoot dry weight) ([1]; concentration 250 mg/L) [g] | Nitrogen content in the leaves ([2]; concentration 250 mg/L) [weight %] | RDW % of control ([2]; concentration 250 mg/L) | RDW (root dry weight) ([2]; concentration 250 mg/L) [g] | SDW % of control ([2]; concentration 250 mg/L) | SDW (shoot dry weight) ([2]; concentration 250 mg/L) [g] | other results
CC(=O)N1CSCC1C(=O)O (centres unmarked) [NATCA, N-acetyl thiazolidine 4-carboxylic acid] | +11.9% | 0.75 | +9.8% | 1.34 | +12.5% | 0.9 | +7.2% | 1.63 |  |  |  |  |  |  |  |  |  | Nitrogen content in the leaves ([2]; concentration 100 mg/L): 4.77 weight %
N[C@@H](CC(=O)O)C(=O)O [Aspartic acid, aspartic acid] |  |  |  |  |  |  |  |  | +14.9% | 0.77 | +3.3% | 1.26 | 4.53 | +15.0% | 0.92 | −1.3% | 1.50 | 
OP(O)O [[PO3]^3−, phosphite] |  |  |  |  |  |  |  |  |  |  |  |  |  |  |  |  |  | RDW % of control ([1]; concentration 600 mg/L): +16.4%; RDW (root dry weight) ([1]; concentration 600 mg/L): 0.78 g; SDW % of control ([1]; concentration 600 mg/L): +8.2%; SDW (shoot dry weight) ([1]; concentration 600 mg/L): 1.32 g; TCC % (total chlorophyll content) ([1]; concentration 600 mg/L): 105%; Nitrogen content in the leaves ([2]; concentration 600 mg/L): 4.81 weight %; RDW % of control ([2]; concentration 600 mg/L): +18.8%; RDW (root dry weight) ([2]; concentration 600 mg/L): 0.95 g; SDW % of control ([2]; concentration 600 mg/L): +14.5%; SDW (shoot dry weight) ([2]; concentration 600 mg/L): 1.74 g
CCCCCC(=O)OCCN(CC)CC [DA6, diethyl aminoethyl hexanoate] |  |  |  |  |  |  |  |  |  |  |  |  |  |  |  |  |  | RDW % of control ([1]; concentration 20 mg/L): +13.4%; RDW (root dry weight) ([1]; concentration 20 mg/L): 0.76 g; SDW % of control ([1]; concentration 20 mg/L): +6.6%; SDW (shoot dry weight) ([1]; concentration 20 mg/L): 1.3 g; TCC % (total chlorophyll content) ([1]; concentration 20 mg/L): 110%; Nitrogen content in the leaves ([2]; concentration 25 mg/L): 4.53 weight %; RDW % of control ([2]; concentration 25 mg/L): +8.8%; RDW (root dry weight) ([2]; concentration 25 mg/L): 0.87 g; SDW % of control ([2]; concentration 25 mg/L): +5.9%; SDW (shoot dry weight) ([2]; concentration 25 mg/L): 1.61 g
N[C@@H](CCC(=O)O)C(=O)O [Glutamic acid, glutamic acid] | +9.0% | 0.73 | +4.1% | 1.27 | +6.3% | 0.85 | +2.0% | 1.55 | +19.4% | 0.8 | +3.3% | 1.26 | 4.56 | +15.0% | 0.92 | +3.9% | 1.58 | 
O=C(O)[C@@H]1CCCN1 [Proline, proline] |  |  |  |  |  |  |  |  | +7.5% | 0.72 | +4.9% | 1.28 | 4.69 | +7.5% | 0.86 | +3.3% | 1.57 | 
poly-γ-(glutamic acid) [γ-PGA] |  |  |  |  |  |  |  |  | +9.0% | 0.73 | +2.5% | 1.25 | 4.74 | +5.0% | 0.84 | +6.6% | 1.62 | TCC % (total chlorophyll content) ([1]; concentration 250 mg/L): 112%
O=C(O)CCC(=O)C(=O)O [2-oxoglutarate] | +11.9% | 0.75 | +10.7% | 1.35 | +8.8% | 0.87 | +5.3% | 1.60 | +16.4% | 0.78 | +14.8% | 1.4 | 4.67 | +13.8% | 0.91 | +8.6% | 1.65 | TCC % (total chlorophyll content) ([1]; concentration 100 mg/L): 107%; TCC % (total chlorophyll content) ([1]; concentration 250 mg/L): 112%
NCCCC(=O)O [GABA, γ-aminobutyric acid] |  |  |  |  |  |  |  |  |  |  |  |  |  |  |  |  |  | Nitrogen content in the leaves ([2]; concentration 200 mg/L): 4.82 weight %; RDW % of control ([2]; concentration 200 mg/L): +5.0%; RDW (root dry weight) ([2]; concentration 200 mg/L): 0.84 g; SDW % of control ([2]; concentration 200 mg/L): +4.6%; SDW (shoot dry weight) ([2]; concentration 200 mg/L): 1.59 g
NCC(=O)O [glycine] | +7.5% | 0.72 | +5.7% | 1.29 | +5.0% | 0.84 | +5.9% | 1.61 | +13.4% | 0.76 | +11.5% | 1.36 | 4.64 | +7.5% | 0.86 | +8.6% | 1.65 | 
C[N+](C)(C)CC(=O)[O-] [Glycine betaine, glycine betaine] |  |  |  |  |  |  |  |  |  |  |  |  |  |  |  |  |  | RDW % of control ([1]; concentration 5 g/L): +4.5%; RDW (root dry weight) ([1]; concentration 5 g/L): 0.70 g; SDW % of control ([1]; concentration 5 g/L): +7.4%; SDW (shoot dry weight) ([1]; concentration 5 g/L): 1.31 g; TCC % (total chlorophyll content) ([1]; concentration 5 g/L): 110%
NC(=O)CC[C@H](N)C(=O)O [glutamine] | +10.4% | 0.74 | +7.4% | 1.31 | +10.0% | 0.88 | +5.3% | 1.60 | +16.4% | 0.78 | +11.5% | 1.36 | 4.59 | +12.5% | 0.90 | +6.6% | 1.62 | 
